Calls of active or inactive are those of the source. The rule behind the calls is not given here.

One may read the IC50 as the point on the concentration scale where inhibition reaches its midpoint.

Assay [1] is described as follows: Inhibition of lymphoid-specific tyrosine phosphatase pLyp35 mutant.
Assay [2] concerns the target Dual specificity protein phosphatase 3 (Homo sapiens, UniProt P51452). The experiment in a line: Inhibition of VHR.
Assay [3] addresses Receptor-type tyrosine-protein phosphatase alpha (Homo sapiens) (UniProt P18433). The experiment in a line: Inhibition of PTPalpha at 100 uM.
In assay [4] the target is T1, Tyrosine-protein phosphatase non-receptor type 1 (Homo sapiens, UniProt P18031).
T1 sequence (P18031 whole entry): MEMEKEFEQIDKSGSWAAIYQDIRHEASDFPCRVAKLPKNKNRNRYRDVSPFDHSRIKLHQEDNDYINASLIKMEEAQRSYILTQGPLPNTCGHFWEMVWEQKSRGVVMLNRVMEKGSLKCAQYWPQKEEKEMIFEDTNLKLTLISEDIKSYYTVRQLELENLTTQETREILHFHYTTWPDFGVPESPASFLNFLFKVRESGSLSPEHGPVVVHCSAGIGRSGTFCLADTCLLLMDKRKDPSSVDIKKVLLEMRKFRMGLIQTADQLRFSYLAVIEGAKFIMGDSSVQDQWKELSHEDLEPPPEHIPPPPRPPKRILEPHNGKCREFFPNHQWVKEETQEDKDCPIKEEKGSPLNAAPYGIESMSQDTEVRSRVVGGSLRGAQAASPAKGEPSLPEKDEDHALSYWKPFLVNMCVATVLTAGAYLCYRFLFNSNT
The experiment in a line: Inhibition of PTP1B.

For assay [5], the target named is Receptor-type tyrosine-protein phosphatase F (Homo sapiens) (UniProt P10586). Nature of the assay: Inhibition of LAR at 100 uM.
Assay [6] addresses T2, Tyrosine-protein phosphatase non-receptor type 9 (Homo sapiens, UniProt P43378).
T2 sequence (P43378 whole entry): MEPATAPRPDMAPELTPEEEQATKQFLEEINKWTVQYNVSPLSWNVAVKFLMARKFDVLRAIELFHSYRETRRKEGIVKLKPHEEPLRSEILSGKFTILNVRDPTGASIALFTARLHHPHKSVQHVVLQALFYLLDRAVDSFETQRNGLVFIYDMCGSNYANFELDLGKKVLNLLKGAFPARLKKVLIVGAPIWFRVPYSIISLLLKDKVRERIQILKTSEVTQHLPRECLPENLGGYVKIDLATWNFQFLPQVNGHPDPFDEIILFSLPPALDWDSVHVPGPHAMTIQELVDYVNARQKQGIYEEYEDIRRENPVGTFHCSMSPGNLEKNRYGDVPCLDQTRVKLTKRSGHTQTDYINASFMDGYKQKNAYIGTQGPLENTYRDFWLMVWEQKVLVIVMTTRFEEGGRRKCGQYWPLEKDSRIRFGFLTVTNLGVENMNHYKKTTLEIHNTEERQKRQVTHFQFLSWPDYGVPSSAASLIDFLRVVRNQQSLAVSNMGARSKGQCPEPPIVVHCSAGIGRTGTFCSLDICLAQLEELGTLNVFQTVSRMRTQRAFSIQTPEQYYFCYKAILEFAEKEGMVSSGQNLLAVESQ
The experiment in a line: Inhibition of PTP-Meg2.

The target in assay [7] is T3, Tyrosine-protein phosphatase non-receptor type 11 (Homo sapiens, UniProt Q06124).
T3 sequence (Q06124 whole entry): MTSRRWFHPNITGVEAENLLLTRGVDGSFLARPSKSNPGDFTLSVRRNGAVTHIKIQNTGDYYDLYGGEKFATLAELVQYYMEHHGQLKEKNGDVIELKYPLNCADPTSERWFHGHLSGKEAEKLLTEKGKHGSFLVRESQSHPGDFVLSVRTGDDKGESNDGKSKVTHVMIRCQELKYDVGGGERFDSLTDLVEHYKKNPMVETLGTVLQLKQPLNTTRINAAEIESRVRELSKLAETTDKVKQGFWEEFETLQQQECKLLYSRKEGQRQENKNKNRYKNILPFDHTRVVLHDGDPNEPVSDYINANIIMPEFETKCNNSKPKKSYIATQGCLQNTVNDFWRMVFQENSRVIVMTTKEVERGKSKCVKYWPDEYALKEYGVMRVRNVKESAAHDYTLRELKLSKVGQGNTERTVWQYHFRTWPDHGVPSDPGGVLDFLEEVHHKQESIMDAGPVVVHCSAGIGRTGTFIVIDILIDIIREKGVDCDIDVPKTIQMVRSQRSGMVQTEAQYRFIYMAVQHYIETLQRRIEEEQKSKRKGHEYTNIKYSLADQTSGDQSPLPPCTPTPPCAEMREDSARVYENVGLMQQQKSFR
The experiment in a line: Inhibition of SHP2.

Assay [8] has as its target Tyrosine-protein phosphatase non-receptor type 13 (Homo sapiens, UniProt Q12923). The experiment in a line: Inhibition of FAP1.
Assay [9] has as its target T4, Tyrosine-protein phosphatase non-receptor type 7 (Homo sapiens, UniProt P35236).
T4 sequence (P35236 whole entry): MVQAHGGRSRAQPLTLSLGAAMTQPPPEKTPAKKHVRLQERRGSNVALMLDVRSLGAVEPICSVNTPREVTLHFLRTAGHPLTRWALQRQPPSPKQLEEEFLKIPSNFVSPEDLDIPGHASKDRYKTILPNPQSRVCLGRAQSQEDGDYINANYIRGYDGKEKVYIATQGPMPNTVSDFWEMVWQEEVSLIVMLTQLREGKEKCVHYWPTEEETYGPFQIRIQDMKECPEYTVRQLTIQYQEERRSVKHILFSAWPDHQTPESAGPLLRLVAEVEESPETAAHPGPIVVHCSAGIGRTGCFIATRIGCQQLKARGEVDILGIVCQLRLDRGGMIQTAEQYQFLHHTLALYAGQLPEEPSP
Nature of the assay: Inhibition of HePTP.

Assay [10] concerns the target T5, Receptor-type tyrosine-protein phosphatase C (Homo sapiens, UniProt P08575).
T5 sequence (P08575 whole entry): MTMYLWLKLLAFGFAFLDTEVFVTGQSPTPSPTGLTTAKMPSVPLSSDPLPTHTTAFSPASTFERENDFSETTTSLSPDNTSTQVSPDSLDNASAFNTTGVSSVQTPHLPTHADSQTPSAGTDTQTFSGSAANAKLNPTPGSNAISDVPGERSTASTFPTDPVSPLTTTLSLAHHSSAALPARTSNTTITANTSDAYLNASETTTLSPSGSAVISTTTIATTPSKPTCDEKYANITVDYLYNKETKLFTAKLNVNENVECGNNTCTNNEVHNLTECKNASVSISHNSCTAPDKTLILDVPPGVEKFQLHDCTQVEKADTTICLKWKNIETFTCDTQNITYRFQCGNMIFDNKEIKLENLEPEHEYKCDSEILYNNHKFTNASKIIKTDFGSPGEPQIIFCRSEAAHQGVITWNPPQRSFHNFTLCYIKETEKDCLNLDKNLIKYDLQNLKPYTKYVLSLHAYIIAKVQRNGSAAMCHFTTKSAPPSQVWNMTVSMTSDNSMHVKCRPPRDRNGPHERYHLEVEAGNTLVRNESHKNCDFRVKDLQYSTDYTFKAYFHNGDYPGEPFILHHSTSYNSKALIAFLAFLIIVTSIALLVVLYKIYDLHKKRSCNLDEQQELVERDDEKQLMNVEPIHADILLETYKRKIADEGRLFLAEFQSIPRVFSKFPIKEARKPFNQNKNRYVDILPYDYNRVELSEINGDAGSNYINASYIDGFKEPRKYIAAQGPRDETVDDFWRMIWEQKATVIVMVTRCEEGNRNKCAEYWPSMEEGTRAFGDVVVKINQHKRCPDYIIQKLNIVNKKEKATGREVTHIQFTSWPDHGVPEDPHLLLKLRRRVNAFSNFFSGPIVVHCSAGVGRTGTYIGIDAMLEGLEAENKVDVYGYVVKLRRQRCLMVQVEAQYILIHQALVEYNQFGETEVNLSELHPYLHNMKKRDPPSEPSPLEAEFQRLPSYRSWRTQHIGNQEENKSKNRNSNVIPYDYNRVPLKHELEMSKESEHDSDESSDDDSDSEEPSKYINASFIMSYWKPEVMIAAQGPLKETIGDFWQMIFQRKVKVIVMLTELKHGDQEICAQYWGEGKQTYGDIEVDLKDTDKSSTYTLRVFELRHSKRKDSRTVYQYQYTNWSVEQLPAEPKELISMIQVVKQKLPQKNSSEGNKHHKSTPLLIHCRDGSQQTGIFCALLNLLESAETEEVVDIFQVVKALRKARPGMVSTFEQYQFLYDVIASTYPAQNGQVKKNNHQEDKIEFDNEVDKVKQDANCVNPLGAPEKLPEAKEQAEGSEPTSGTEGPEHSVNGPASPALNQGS
The experiment in a line: Inhibition of CD45.

Chain of Dual specificity protein phosphatase 3 (P51452 whole entry): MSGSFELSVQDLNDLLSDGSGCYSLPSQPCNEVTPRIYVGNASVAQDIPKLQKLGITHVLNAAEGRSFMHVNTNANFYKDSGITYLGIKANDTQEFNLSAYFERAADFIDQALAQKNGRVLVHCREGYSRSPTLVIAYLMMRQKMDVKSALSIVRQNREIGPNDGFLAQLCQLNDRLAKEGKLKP
Chain of Receptor-type tyrosine-protein phosphatase F (Homo sapiens) (P10586 whole entry): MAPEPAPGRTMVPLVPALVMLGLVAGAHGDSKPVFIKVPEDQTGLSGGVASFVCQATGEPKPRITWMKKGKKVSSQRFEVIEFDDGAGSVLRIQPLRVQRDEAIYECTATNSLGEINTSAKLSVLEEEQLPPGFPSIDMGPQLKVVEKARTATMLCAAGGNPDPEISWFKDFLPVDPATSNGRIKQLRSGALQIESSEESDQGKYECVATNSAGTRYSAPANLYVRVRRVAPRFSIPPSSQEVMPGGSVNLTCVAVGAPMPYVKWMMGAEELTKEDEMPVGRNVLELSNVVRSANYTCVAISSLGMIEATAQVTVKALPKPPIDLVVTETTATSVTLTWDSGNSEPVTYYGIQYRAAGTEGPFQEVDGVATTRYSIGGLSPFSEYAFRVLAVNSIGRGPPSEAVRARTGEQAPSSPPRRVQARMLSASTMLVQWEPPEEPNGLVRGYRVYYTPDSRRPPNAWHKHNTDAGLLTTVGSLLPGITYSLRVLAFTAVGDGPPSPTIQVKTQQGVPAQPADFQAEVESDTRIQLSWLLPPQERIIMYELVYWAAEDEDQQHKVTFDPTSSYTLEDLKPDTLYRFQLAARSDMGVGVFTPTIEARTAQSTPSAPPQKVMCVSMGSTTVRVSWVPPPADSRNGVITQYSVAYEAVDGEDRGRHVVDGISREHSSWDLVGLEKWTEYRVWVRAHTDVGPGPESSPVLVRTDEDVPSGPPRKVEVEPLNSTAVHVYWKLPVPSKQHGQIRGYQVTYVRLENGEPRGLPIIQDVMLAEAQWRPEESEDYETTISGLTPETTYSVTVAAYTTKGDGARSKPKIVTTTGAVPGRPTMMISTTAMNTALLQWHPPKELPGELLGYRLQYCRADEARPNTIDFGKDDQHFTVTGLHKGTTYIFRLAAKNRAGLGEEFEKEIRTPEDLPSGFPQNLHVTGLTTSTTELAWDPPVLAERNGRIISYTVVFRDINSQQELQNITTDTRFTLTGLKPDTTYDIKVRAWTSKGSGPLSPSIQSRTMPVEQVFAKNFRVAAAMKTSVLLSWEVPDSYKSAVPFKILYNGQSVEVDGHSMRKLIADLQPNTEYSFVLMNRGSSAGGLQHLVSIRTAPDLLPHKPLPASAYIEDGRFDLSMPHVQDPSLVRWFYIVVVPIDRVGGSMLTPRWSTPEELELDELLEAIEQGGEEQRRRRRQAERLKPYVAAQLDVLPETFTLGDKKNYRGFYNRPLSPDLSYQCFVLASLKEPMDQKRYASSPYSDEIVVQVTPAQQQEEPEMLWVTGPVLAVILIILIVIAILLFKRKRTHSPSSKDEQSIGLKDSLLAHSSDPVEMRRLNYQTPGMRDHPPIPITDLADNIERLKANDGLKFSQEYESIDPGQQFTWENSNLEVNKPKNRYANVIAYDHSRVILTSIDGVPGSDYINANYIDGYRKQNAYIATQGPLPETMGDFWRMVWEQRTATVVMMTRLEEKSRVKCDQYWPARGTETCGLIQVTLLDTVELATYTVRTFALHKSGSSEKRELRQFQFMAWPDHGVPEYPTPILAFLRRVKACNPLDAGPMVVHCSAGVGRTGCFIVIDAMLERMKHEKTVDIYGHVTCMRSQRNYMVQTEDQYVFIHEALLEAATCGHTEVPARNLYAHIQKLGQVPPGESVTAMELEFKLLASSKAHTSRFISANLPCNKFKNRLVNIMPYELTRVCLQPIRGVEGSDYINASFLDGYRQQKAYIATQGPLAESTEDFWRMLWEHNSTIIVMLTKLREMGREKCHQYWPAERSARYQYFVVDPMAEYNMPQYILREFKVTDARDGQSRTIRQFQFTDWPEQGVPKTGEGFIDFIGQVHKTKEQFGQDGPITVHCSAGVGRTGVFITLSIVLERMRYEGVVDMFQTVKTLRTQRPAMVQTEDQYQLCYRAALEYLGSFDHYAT
Chain of Tyrosine-protein phosphatase non-receptor type 13 (Q12923 whole entry): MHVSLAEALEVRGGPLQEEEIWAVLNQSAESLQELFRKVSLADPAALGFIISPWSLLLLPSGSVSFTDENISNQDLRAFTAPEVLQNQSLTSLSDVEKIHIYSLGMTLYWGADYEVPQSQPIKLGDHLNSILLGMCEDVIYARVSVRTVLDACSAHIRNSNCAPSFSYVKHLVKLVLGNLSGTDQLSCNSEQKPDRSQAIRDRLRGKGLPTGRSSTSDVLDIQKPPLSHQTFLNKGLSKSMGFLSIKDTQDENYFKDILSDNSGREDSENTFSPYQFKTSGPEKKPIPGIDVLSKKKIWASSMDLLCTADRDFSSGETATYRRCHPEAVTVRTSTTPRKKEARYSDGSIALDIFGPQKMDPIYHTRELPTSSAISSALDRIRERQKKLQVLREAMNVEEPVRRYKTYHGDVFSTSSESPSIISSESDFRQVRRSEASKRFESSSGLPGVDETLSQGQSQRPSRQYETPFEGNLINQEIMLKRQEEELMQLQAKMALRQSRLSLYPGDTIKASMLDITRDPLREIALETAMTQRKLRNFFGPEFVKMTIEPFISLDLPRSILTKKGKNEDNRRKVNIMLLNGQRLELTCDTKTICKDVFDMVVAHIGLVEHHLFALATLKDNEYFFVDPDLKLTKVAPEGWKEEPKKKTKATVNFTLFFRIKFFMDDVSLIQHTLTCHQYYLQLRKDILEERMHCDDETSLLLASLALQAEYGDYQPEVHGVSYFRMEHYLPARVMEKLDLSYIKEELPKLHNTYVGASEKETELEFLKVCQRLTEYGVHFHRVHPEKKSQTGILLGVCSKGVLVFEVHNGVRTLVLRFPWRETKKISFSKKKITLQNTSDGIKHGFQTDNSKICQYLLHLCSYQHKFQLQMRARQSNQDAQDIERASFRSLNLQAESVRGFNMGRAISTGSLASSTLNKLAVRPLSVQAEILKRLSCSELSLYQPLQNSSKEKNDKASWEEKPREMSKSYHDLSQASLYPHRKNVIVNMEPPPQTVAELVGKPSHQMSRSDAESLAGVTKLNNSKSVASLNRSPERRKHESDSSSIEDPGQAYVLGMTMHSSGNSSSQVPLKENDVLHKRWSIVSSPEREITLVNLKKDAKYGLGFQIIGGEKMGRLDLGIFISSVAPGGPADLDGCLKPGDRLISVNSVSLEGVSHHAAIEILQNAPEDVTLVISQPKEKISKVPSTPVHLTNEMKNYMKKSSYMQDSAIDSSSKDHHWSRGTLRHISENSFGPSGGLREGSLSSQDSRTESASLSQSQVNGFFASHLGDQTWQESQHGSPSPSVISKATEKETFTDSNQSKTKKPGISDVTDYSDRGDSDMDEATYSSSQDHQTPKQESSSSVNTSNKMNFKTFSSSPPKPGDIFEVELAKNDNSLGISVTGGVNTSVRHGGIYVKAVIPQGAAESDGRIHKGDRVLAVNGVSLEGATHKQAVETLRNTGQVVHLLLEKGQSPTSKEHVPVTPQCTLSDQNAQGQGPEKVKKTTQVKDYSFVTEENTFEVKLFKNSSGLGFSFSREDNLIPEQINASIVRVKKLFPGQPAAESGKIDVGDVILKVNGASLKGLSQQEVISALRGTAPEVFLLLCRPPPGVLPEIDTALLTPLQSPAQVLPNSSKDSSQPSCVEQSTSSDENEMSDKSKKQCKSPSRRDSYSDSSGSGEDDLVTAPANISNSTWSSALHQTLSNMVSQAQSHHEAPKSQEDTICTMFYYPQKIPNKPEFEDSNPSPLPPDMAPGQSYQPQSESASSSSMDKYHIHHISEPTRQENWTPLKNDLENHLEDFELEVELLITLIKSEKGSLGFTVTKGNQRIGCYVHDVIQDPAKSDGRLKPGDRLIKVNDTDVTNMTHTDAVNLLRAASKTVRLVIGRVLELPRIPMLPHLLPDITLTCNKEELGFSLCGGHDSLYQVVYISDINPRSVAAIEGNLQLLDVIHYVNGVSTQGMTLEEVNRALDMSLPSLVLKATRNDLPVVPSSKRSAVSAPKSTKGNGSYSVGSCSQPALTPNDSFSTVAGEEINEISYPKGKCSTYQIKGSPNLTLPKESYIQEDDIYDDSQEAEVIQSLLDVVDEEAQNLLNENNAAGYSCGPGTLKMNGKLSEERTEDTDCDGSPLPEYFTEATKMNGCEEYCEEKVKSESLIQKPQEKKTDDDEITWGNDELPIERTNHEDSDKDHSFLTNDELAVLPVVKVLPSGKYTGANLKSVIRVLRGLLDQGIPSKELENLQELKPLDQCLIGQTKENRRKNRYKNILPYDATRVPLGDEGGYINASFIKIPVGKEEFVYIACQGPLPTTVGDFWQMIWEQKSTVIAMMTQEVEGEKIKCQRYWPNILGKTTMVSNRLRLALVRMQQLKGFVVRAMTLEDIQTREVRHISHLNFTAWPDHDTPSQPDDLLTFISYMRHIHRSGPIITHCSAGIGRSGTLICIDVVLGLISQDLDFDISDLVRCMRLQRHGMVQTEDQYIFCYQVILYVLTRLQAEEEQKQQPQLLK

`O=C(CCCn1cc(-c2c(-c3ccccc3)oc3cc(O)c(C(=O)O)cc23)nn1)Nc1cccc2ccccc12`: the IC50 was found to be 48 µM in assay [1]; 103 µM in [2]; 11.8 µM in assay [4]; 31.8 µM in assay [6]; 36 µM in assay [7]; 36.8 µM in assay [8]. The IC50 is 32.1 µM in assay [9] and 186 µM in assay [10]. The result in assay [3] and in assay [5] was inactive.
